Legend:
[1] = molecular target: DGKzeta (Homo sapiens, UniProt Q13574); experiment: In vitro DGK inhibition assay (ADP-Glo, liposomes), DGKzeta; assay type: biochemical; parameters: hDGKzeta(1-928)-N-His; His (N); made in house; host or cells: Sf21 insect cells (baculovirus); details: 2 nM DGK ζ, 50 μM ATP, 125 uM DLG in liposomes, 1 hour reaction
Procedure, shortened: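 DGKζ (2 nM) phosphorylated DLG presented in DLG/PS/PC liposomes (final DLG 125 μM) with 50 μM ATP for 1 hour. ADP formed was read by ADP-Glo luminescence. Compounds were tested as 11-point 1:3 dose responses in 2% final DMSO.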

[2] = system: primary human T-cells; experiment: T-cell proliferation assay (CellTiter-Glo); assay type: cell-based; details: Homo sapiens, T-cell, 120 h, CD3 condition
Procedure, shortened: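 Expanded primary human T-cells (100k/well) on plates coated with CD3 antibody or PBS only, given a 5- or 6-point dose response (top 20 or 10 μM final, 3.333-fold steps, 0.2% DMSO). ATP measured by CellTiter-Glo 2.0 luminescence after 5 days. Normalized to DMSO and 20 μM reference A1 (100%); EC50 and Emax reported for CD3 conditions.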

Sequence of DGKzeta (Q13574 whole entry): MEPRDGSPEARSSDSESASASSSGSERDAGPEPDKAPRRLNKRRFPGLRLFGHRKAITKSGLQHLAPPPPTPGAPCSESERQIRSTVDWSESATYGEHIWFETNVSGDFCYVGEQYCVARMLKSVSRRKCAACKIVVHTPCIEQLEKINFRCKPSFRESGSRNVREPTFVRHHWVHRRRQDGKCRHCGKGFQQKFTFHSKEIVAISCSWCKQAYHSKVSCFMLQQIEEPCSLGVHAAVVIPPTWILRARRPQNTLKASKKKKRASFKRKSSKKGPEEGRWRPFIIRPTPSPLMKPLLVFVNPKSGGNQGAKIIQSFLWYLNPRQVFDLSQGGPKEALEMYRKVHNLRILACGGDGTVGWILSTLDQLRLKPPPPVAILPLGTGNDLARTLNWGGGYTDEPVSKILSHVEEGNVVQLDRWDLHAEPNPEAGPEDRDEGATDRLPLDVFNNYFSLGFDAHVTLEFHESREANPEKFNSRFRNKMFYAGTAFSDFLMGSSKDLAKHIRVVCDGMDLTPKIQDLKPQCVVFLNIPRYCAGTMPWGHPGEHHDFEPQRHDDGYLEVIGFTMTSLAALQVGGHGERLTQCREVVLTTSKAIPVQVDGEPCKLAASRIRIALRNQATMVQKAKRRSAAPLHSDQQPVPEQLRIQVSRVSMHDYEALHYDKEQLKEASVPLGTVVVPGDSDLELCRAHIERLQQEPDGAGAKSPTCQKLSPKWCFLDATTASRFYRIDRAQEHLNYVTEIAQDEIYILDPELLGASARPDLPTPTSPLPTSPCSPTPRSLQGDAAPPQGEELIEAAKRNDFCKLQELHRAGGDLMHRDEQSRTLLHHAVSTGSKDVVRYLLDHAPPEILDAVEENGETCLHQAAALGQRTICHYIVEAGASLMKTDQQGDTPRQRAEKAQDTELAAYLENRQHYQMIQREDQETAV

- IC50 [1]: 269 nM
Compound: COCC(C)(C)Oc1ccc(CN2C(=O)[C@@H](N)CS(=O)(=O)c3cc(F)c(-c4noc(C(C)(C)S(C)(=O)=O)n4)cc32)cc1 [Example 62, (3R)-3-amino-8-fluoro-5-[[4-(2-methoxy-1,1-dimethyl-ethoxy)phenyl]methyl]-7-[5-(1-methyl-1-methylsulfonyl-ethyl)-1,2,4-oxadiazol-3-yl]-1,1-dioxo-2,3-dihydro-benzothiazepin-4-one]
- Emax ([2]; 5 days, 20 μM reference compound A1 = 100%, read-out: Emax proliferation (% activation)): 188%
- EC50 ([2]; proliferation after 5 days, CellTiter-Glo, read-out: Tcell Proliferation CD3 EC50): 1390 nM

Source: US20260035364A1, “BICYCLIC TETRAHYDROTHIAZEPINE DERIVATIVES” (Hoffmann-La Roche Inc., priority 2022, published 2026)
